Test results published in the NIST ThermoML archive (doi:10.1021/je060355j).

How the values were obtained:
[1] = excess molar enthalpy (molar enthalpy of mixing); xn = mol fraction of the nth substance listed; settings: 101.32 kPa, Liquid
[2] = xn = mol fraction of the nth substance listed; settings: 101.32 kPa, Liquid

CCCCOC=O [butyl methanoate] + CCCCCC
Settings | excess molar enthalpy [kcal/mol] | mass density [kg/m3]
[1], 291.15 K, x1 = 0.0865 | 0.0769 | –
[1], 291.15 K, x1 = 0.1588 | 0.134 | –
[1], 291.15 K, x1 = 0.2303 | 0.183 | –
[1], 291.15 K, x1 = 0.2973 | 0.216 | –
[1], 291.15 K, x1 = 0.3551 | 0.237 | –
[1], 291.15 K, x1 = 0.4081 | 0.248 | –
[1], 291.15 K, x1 = 0.454 | 0.253 | –
[1], 291.15 K, x1 = 0.5114 | 0.251 | –
[1], 291.15 K, x1 = 0.5606 | 0.243 | –
[1], 291.15 K, x1 = 0.6177 | 0.228 | –
[1], 291.15 K, x1 = 0.6775 | 0.205 | –
[1], 291.15 K, x1 = 0.7406 | 0.176 | –
[1], 291.15 K, x1 = 0.8067 | 0.14 | –
[1], 291.15 K, x1 = 0.873 | 0.0959 | –
[1], 291.15 K, x1 = 0.94 | 0.0509 | –
[1], 318.15 K, x1 = 0.0808 | 0.105 | –
[1], 318.15 K, x1 = 0.1626 | 0.168 | –
[1], 318.15 K, x1 = 0.2415 | 0.217 | –
[1], 318.15 K, x1 = 0.311 | 0.248 | –
[1], 318.15 K, x1 = 0.3823 | 0.268 | –
[1], 318.15 K, x1 = 0.4464 | 0.275 | –
[1], 318.15 K, x1 = 0.4882 | 0.274 | –
[1], 318.15 K, x1 = 0.5104 | 0.275 | –
[1], 318.15 K, x1 = 0.5661 | 0.266 | –
[1], 318.15 K, x1 = 0.63 | 0.25 | –
[1], 318.15 K, x1 = 0.7075 | 0.219 | –
[1], 318.15 K, x1 = 0.7904 | 0.175 | –
[1], 318.15 K, x1 = 0.868 | 0.121 | –
[1], 318.15 K, x1 = 0.9412 | 0.0645 | –
[2], 291.15 K, x1 = 0.0445 | – | 669.6
[2], 291.15 K, x1 = 0.09 | – | 678.6
[2], 291.15 K, x1 = 0.1461 | – | 689.8
[2], 291.15 K, x1 = 0.1928 | – | 699.5
[2], 291.15 K, x1 = 0.249 | – | 711.4
[2], 291.15 K, x1 = 0.3018 | – | 722.7
[2], 291.15 K, x1 = 0.4025 | – | 745.2
[2], 291.15 K, x1 = 0.5021 | – | 768.3
[2], 291.15 K, x1 = 0.5957 | – | 790.7
[2], 291.15 K, x1 = 0.6963 | – | 815.7
[2], 291.15 K, x1 = 0.7541 | – | 830.4
[2], 291.15 K, x1 = 0.802 | – | 842.7
[2], 291.15 K, x1 = 0.8532 | – | 856.1
[2], 291.15 K, x1 = 0.8987 | – | 868.2
[2], 291.15 K, x1 = 0.9575 | – | 884.3
[2], 291.15 K, x1 = 1 | – | 896
[2], 298.15 K, x1 = 0.0729 | – | 669.39
[2], 298.15 K, x1 = 0.1321 | – | 681.03
[2], 298.15 K, x1 = 0.1967 | – | 694.2
[2], 298.15 K, x1 = 0.2658 | – | 708.76
[2], 298.15 K, x1 = 0.336 | – | 723.94
[2], 298.15 K, x1 = 0.3698 | – | 731.4
[2], 298.15 K, x1 = 0.4886 | – | 758.31
[2], 298.15 K, x1 = 0.5876 | – | 781.81
[2], 298.15 K, x1 = 0.6855 | – | 805.81
[2], 298.15 K, x1 = 0.7677 | – | 826.55
[2], 298.15 K, x1 = 0.8136 | – | 838.26
[2], 298.15 K, x1 = 0.8574 | – | 849.77
[2], 298.15 K, x1 = 0.8986 | – | 860.63
[2], 298.15 K, x1 = 0.9227 | – | 867.09
[2], 298.15 K, x1 = 0.9714 | – | 880.08
[2], 298.15 K, x1 = 1 | – | 888.66
[2], 308.15 K, x1 = 0.047 | – | 654.6
[2], 308.15 K, x1 = 0.1095 | – | 666.7
[2], 308.15 K, x1 = 0.1485 | – | 674.6
[2], 308.15 K, x1 = 0.2005 | – | 685.2
[2], 308.15 K, x1 = 0.2579 | – | 697.2
[2], 308.15 K, x1 = 0.2981 | – | 705.7
[2], 308.15 K, x1 = 0.4033 | – | 728.8
[2], 308.15 K, x1 = 0.5098 | – | 753.1
[2], 308.15 K, x1 = 0.6081 | – | 776.4
[2], 308.15 K, x1 = 0.7112 | – | 801.8
[2], 308.15 K, x1 = 0.7576 | – | 813.5
[2], 308.15 K, x1 = 0.8073 | – | 826.3
[2], 308.15 K, x1 = 0.8511 | – | 837.7
[2], 308.15 K, x1 = 0.9081 | – | 852.9
[2], 308.15 K, x1 = 0.9598 | – | 867.3
[2], 308.15 K, x1 = 1 | – | 878.24
[2], 318.15 K, x1 = 0.0493 | – | 645.6
[2], 318.15 K, x1 = 0.0857 | – | 652.7
[2], 318.15 K, x1 = 0.1192 | – | 659.1
[2], 318.15 K, x1 = 0.1589 | – | 666.9
[2], 318.15 K, x1 = 0.1975 | – | 674.7
[2], 318.15 K, x1 = 0.2452 | – | 684.5
[2], 318.15 K, x1 = 0.3006 | – | 696.2
[2], 318.15 K, x1 = 0.4015 | – | 718
[2], 318.15 K, x1 = 0.495 | – | 739.2
[2], 318.15 K, x1 = 0.5929 | – | 762.2
[2], 318.15 K, x1 = 0.705 | – | 789.5
[2], 318.15 K, x1 = 0.746 | – | 799.7
[2], 318.15 K, x1 = 0.8134 | – | 817.05
[2], 318.15 K, x1 = 0.9067 | – | 841.5
[2], 318.15 K, x1 = 0.9647 | – | 857.1
[2], 318.15 K, x1 = 1 | – | 867.21
